From patent US8247211B2, “Glycopeptide antibiotics” (American Cyanamid Company, priority 2001, dated 2012)
In brackets after ≈: the same amount, converted by molar mass.

What was measured:
Experiment in all cases: In vitro antibacterial evaluation: minimum inhibitory concentration (MIC), broth dilution method
Assay type in all cases: cell-based
[1] = tested on: Enterococcus sp.; conditions: 18 hours at 35° C.
Procedure, shortened: (§1)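 Test strains, among them recent clinical isolates carrying methicillin, penicillin and/or vancomycin resistance, were inoculated at 5×10^5 CFU/mL. A broth dilution series spanning 64-0.06 μg/mL in Muller-Hinton II […] (NCCLS M7-A2) defined the MIC as the lowest growth-inhibiting concentration.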

[2] = tested on: Escherichia coli; conditions: 18 hours at 35° C.
Procedure, shortened: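 Values are minimum inhibitory concentrations, meaning the smallest antibiotic concentration that stops growth of the organism. They come from broth dilution in Muller-Hinton II […] per NCCLS guidance (M7-A2), using 5×10^5 CFU/mL and concentrations from 64 to 0.06 μg/mL.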

[3] = tested on: Staphylococcus sp.
Procedure, shortened: as §1

[4] = tested on: Streptococcus sp.; conditions: 18 hours at 35° C.
Procedure, shortened: as §1

[5] = broth dilution, inoculum 5×10^5 CFU/mL

COc1ccc(COCC2OC(OC3C(CO)OC(Oc4ccc(CC5NC(=O)C(C(C)c6ccccc6)NC(=O)CNC(=O)C(CO)NC(=O)C(C(O)C6CNC(=N)N6C6OC(CO)C(O)C(O)C6O)NC(=O)C(C(O)C6CNC(=N)N6)NC5=O)cc4)C(O)C3O)C(O)C(O)C2O)cc1 (stereo not drawn) [Example 232, Cyclo[glycyl-β-methylphenylalanyl-O-[4-O-[6-O-(4-methoxybenzyl)hexopyranosyl]hexopyranosyl]tyrosyl-3-(2-iminoimidazolidin-4-yl)seryl-3-(3-hexopyranosyl-2-iminoimidazolidin-4-yl)serylseryl]]
MIC Enterococcus avium (GC 4558) ([1]; Enterococcus avium (GC 4558)): 32 µg/mL (≈ 22.6 µM) | MIC Enterococcus faecalis (ATCC 29212) ([1]; Enterococcus faecalis (ATCC 29212)): 32 µg/mL (≈ 22.6 µM) | MIC Enterococcus faecalis (GC 2242) ([1]; Enterococcus faecalis (GC 2242)): 16 µg/mL (≈ 11.3 µM) | MIC Enterococcus faecalis (GC 2691) ([1]; Enterococcus faecalis (GC 2691)): 32 µg/mL (≈ 22.6 µM) | MIC Enterococcus faecalis (GC 3059) ([1]; Enterococcus faecalis (GC 3059)): 32 µg/mL (≈ 22.6 µM) | MIC Enterococcus faecalis (GC 4552) ([1]; Enterococcus faecalis (GC 4552)): 32 µg/mL (≈ 22.6 µM) | MIC Enterococcus faecalis (GC 4553) ([1]; Enterococcus faecalis (GC 4553)): 32 µg/mL (≈ 22.6 µM) | MIC Enterococcus faecalis (GC 4554) ([1]; Enterococcus faecalis (GC 4554)): 32 µg/mL (≈ 22.6 µM) | MIC Enterococcus faecalis (GC 6189) ([1]; Enterococcus faecalis (GC 6189)): 64 µg/mL (≈ 45.2 µM) | MIC Enterococcus faecium (GC 2243) ([1]; Enterococcus faecium (GC 2243)): 16 µg/mL (≈ 11.3 µM) | MIC Enterococcus faecium (GC 4556) ([1]; Enterococcus faecium (GC 4556)): 32 µg/mL (≈ 22.6 µM) | MIC Enterococcus faecium (GC 4557) ([1]; Enterococcus faecium (GC 4557)): 4 µg/mL (≈ 2.83 µM) | MIC Enterococcus avium (GC 4558) [1, 5]: 32 µg/mL (≈ 22.6 µM) | MIC Enterococcus faecalis (ATCC 29212) [1, 5]: 32 µg/mL (≈ 22.6 µM) | MIC Enterococcus faecalis (GC 2242) [1, 5]: 16 µg/mL (≈ 11.3 µM) | MIC Enterococcus faecalis (GC 2691) [1, 5]: 32 µg/mL (≈ 22.6 µM) | MIC Enterococcus faecalis (GC 3059) [1, 5]: 32 µg/mL (≈ 22.6 µM) | MIC Enterococcus faecalis (GC 4552) [1, 5]: 32 µg/mL (≈ 22.6 µM) | MIC Enterococcus faecalis (GC 4553) [1, 5]: 32 µg/mL (≈ 22.6 µM) | MIC Enterococcus faecalis (GC 4554) [1, 5]: 32 µg/mL (≈ 22.6 µM) | MIC Enterococcus faecalis (GC 6189) [1, 5]: 64 µg/mL (≈ 45.2 µM) | MIC Enterococcus faecium (GC 2243) [1, 5]: 16 µg/mL (≈ 11.3 µM) | MIC Enterococcus faecium (GC 4556) [1, 5]: 32 µg/mL (≈ 22.6 µM) | MIC Enterococcus faecium (GC 4557) [1, 5]: 4 µg/mL (≈ 2.83 µM) | MIC Escherichia coli (ATCC 25922) ([2]; Escherichia coli (ATCC 25922)): >64 µg/mL | MIC Escherichia coli (GC 4559) ([2]; Escherichia coli (GC 4559)): 64 µg/mL (≈ 45.2 µM) | MIC Escherichia coli (GC 4560) ([2]; Escherichia coli (GC 4560)): 2 µg/mL (≈ 1.41 µM) | MIC Coagulase Negative Staphylococcus (GC 4547) ([3]; Coagulase Negative Staphylococcus (GC 4547), 18 hours at 35° C.): 2 µg/mL (≈ 1.41 µM) | MIC Coagulase Negative Staphylococcus (GC 4548) ([3]; Coagulase Negative Staphylococcus (GC 4548), 18 hours at 35° C.): 2 µg/mL (≈ 1.41 µM) | MIC Coagulase Negative Staphylococcus (GC 4549) ([3]; Coagulase Negative Staphylococcus (GC 4549), 18 hours at 35° C.): 1 µg/mL (≈ 0.707 µM) | MIC Coagulase Negative Staphylococcus (GC 4551) ([3]; Coagulase Negative Staphylococcus (GC 4551), 18 hours at 35° C.): 4 µg/mL (≈ 2.83 µM) | MIC Coagulase Negative Staphylococcus (GC 6257) ([3]; Coagulase Negative Staphylococcus (GC 6257), 18 hours at 35° C.): 2 µg/mL (≈ 1.41 µM) | MIC Staphylococcus aureus (ATCC 29213) ([3]; Staphylococcus aureus (ATCC 29213), 18 hours at 35° C.): 4 µg/mL (≈ 2.83 µM) | MIC Staphylococcus aureus (GC 1131) ([3]; Staphylococcus aureus (GC 1131), 18 hours at 35° C.): 4 µg/mL (≈ 2.83 µM) | MIC Staphylococcus aureus (GC 3051) ([3]; Staphylococcus aureus (GC 3051), 18 hours at 35° C.): 4 µg/mL (≈ 2.83 µM) | MIC Staphylococcus aureus (GC 3053) ([3]; Staphylococcus aureus (GC 3053), 18 hours at 35° C.): 8 µg/mL (≈ 5.65 µM) | MIC Staphylococcus aureus (GC 4541) ([3]; Staphylococcus aureus (GC 4541), 18 hours at 35° C.): 4 µg/mL (≈ 2.83 µM) | MIC Staphylococcus aureus (GC 4542) ([3]; Staphylococcus aureus (GC 4542), 18 hours at 35° C.): 4 µg/mL (≈ 2.83 µM) | MIC Staphylococcus aureus (GC 4544) ([3]; Staphylococcus aureus (GC 4544), 18 hours at 35° C.): 4 µg/mL (≈ 2.83 µM) | MIC Staphylococcus aureus (GC 4545) ([3]; Staphylococcus aureus (GC 4545), 18 hours at 35° C.): 4 µg/mL (≈ 2.83 µM) | MIC Staphylococcus aureus-SMITH (GC 4543) ([3]; Staphylococcus aureus-SMITH (GC 4543), 18 hours at 35° C.): 4 µg/mL (≈ 2.83 µM) | MIC Staphylococcus haemolyticus (GC 4546) ([3]; Staphylococcus haemolyticus (GC 4546), 18 hours at 35° C.): 2 µg/mL (≈ 1.41 µM) | MIC Streptococcus agalactiae (GC 4564) ([4]; Streptococcus agalactiae (GC 4564)): 2 µg/mL (≈ 1.41 µM) | MIC Streptococcus pneumoniae (ATCC 6301) ([4]; Streptococcus pneumoniae (ATCC 6301)): 0.5 µg/mL (≈ 0.353 µM) | MIC Streptococcus pneumoniae (GC 1894) ([4]; Streptococcus pneumoniae (GC 1894)): 0.5 µg/mL (≈ 0.353 µM) | MIC Streptococcus pneumoniae (GC 4565) ([4]; Streptococcus pneumoniae (GC 4565)): 1 µg/mL (≈ 0.707 µM) | MIC Streptococcus pyogenes (GC 4563) ([4]; Streptococcus pyogenes (GC 4563)): 2 µg/mL (≈ 1.41 µM) | MIC Streptococcus agalactiae (GC 4564) [4, 5]: 2 µg/mL (≈ 1.41 µM) | MIC Streptococcus pneumoniae (ATCC 6301) [4, 5]: 0.5 µg/mL (≈ 0.353 µM) | MIC Streptococcus pneumoniae (GC 1894) [4, 5]: 0.5 µg/mL (≈ 0.353 µM) | MIC Streptococcus pneumoniae (GC 4565) [4, 5]: 1 µg/mL (≈ 0.707 µM) | MIC Streptococcus pyogenes (GC 4563) [4, 5]: 2 µg/mL (≈ 1.41 µM)

CC(c1ccccc1)C1NC(=O)CNC(=O)C(CO)NC(=O)C(C(O)C2CNC(=N)N2C2OC(CO)C(O)C(O)C2O)NC(=O)C(C(O)C2CNC(=N)N2)NC(=O)C(Cc2ccc(OC3OC(CO)C(OC4OC(CO)C(O)C5OC(c6ccccc6)OC45)C(O)C3O)cc2)NC1=O (single isomer, unassigned) [Example 104a, Cyclo[glycyl-β-methylphenylalanyl-O-[4-O-(2,3-O-benzylidenehexopyranosyl)hexopyranosyl]-tyrosyl-3-(2-iminoimidazolidin-4-yl)seryl-3-(3-hexopyranosyl-2-iminoimidazolidin-4-yl)-serylseryl]]
MIC Enterococccus avium (GC 4558) ([1]; broth dilution, 5×10^5 CFU/mL): >64 µg/mL | MIC Enterococccus faecalis (ATCC 29212) ([1]; broth dilution, 5×10^5 CFU/mL): >64 µg/mL | MIC Enterococccus faecalis (GC 2691) ([1]; broth dilution, 5×10^5 CFU/mL): >0.5 µg/mL | MIC Enterococccus faecalis (GC 3059) ([1]; broth dilution, 5×10^5 CFU/mL): >0.5 µg/mL | MIC Enterococccus faecalis (GC 4552) ([1]; broth dilution, 5×10^5 CFU/mL): >0.5 µg/mL | MIC Enterococccus faecalis (GC 4553) ([1]; broth dilution, 5×10^5 CFU/mL): >0.5 µg/mL | MIC Enterococccus faecalis (GC 4554) ([1]; broth dilution, 5×10^5 CFU/mL): >0.5 µg/mL | MIC Enterococccus faecalis (GC 6189) ([1]; broth dilution, 5×10^5 CFU/mL): >64 µg/mL | MIC Enterococccus faecium (GC 2243) ([1]; broth dilution, 5×10^5 CFU/mL): >64 µg/mL | MIC Enterococccus faecium (GC 4556) ([1]; broth dilution, 5×10^5 CFU/mL): >64 µg/mL | MIC Enterococccus faecium (GC 4557) ([1]; broth dilution, 5×10^5 CFU/mL): 0.5 µg/mL (≈ 0.361 µM) | MIC Enterococcus faecalis (GC 2242) ([1]; broth dilution, 5×10^5 CFU/mL): >64 µg/mL | MIC Escherichia coli (ATCC 25922) ([2]; 5×10^5 CFU/mL): >64 µg/mL | MIC Escherichia coli (GC 4559) ([2]; 5×10^5 CFU/mL): >64 µg/mL | MIC Staphylococcus aureus (GC 3051) ([3]; strain GC 3051): 0.5 µg/mL (≈ 0.361 µM) | MIC Staphylococcus aureus (GC 3053) ([3]; strain GC 3053): 0.5 µg/mL (≈ 0.361 µM) | MIC Staphylococcus aureus (GC 4542) ([3]; strain GC 4542): 0.5 µg/mL (≈ 0.361 µM) | MIC Staphylococcus aureus (GC 4544) ([3]; strain GC 4544): 0.5 µg/mL (≈ 0.361 µM) | MIC Staphylococcus aureus (GC 4545) ([3]; strain GC 4545): 0.5 µg/mL (≈ 0.361 µM) | MIC Staphylococcus haemolyticus (GC 4546) ([3]; strain GC 4546): 32 µg/mL (≈ 23.1 µM) | MIC Staphylococcus haemolyticus (GC 4546) ([3]; strain GC 4546, broth dilution, 18 hours at 35° C.): 32 µg/mL (≈ 23.1 µM) | MIC Coagulase Negative Staphylococcus (GC 4547) ([3]; strain GC 4547): 32 µg/mL (≈ 23.1 µM) | MIC Coagulase Negative Staphylococcus (GC 4547) ([3]; strain GC 4547, broth dilution, 18 hours at 35° C.): 32 µg/mL (≈ 23.1 µM) | MIC Coagulase Negative Staphylococcus (GC 4551) ([3]; strain GC 4551): 32 µg/mL (≈ 23.1 µM) | MIC Coagulase Negative Staphylococcus (GC 4551) ([3]; strain GC 4551, broth dilution, 18 hours at 35° C.): 32 µg/mL (≈ 23.1 µM) | MIC Coagulase Negative Staphylococcus (GC 6257) ([3]; strain GC 6257): 16 µg/mL (≈ 11.6 µM) | MIC Coagulase Negative Staphylococcus (GC 6257) ([3]; strain GC 6257, broth dilution, 18 hours at 35° C.): 16 µg/mL (≈ 11.6 µM) | MIC Streptococcus agalactiae (GC 4564) ([4]; broth dilution, 5×10^5 CFU/mL): 0.5 µg/mL (≈ 0.361 µM) | MIC Streptococcus pneumoniae (GC 4565) ([4]; broth dilution, 5×10^5 CFU/mL): 0.12 µg/mL (≈ 0.0867 µM) | MIC Streptococcus pneumonine (ATCC 6301) ([4]; broth dilution, 5×10^5 CFU/mL): 0.12 to 16 µg/mL | MIC Streptococcus pyogenes (GC 4563) ([4]; broth dilution, 5×10^5 CFU/mL): 0.12 µg/mL (≈ 0.0867 µM)
